According to patent US6642003B2, “Human glucose-dependent insulin-secreting cell line” (Cedars-Sinai Medical Center, priority 2001, dated 2003):

Legend:
diabetic rats = settings: adult animals after subtotal pancreatectomy; cited from earlier work
ARIP cells = assay: RT-PCR of islet β-cell specific transcripts, ARIP cells; format: cell-based, rat; settings: Exendin-9 100 nM for 72 h
Protocol: (§1) After the treatment of ARIP and PANC-1 cells with GLP-1, Exendin-9, or vehicle, for the described length of time and the various doses, the culture medium was removed and the cells were washed (twice) with serum-free medium. Total RNA was isolated using the TRiazol-method (Gibco-BRL), and treated with DNase (Amplification Grade, GibcoBRL) in 20 mmol/l Tris-HCL (pH 8.4), 2 mmol/l MgCl2, and 50 mmol/l KCl to remove any traces of contaminating genomic DNA. RNA (2.5 μg) was then subjected to reverse transcription (RT reagents; Promega; Madison, Wis.). RT-PCR was undertaken in a volume of 50 μl of buffer containing 50 mmol/l KCl, 10 mmol/l Tris-HCl, 3.5 mmol/l MgCl2, 200 μmol/l each dNTPs, and 0.4 μmol/l each of sense and antisense primers to rat or human insulin (depending on the specific cell from which the RNA was extracted). Amplification was performed for 30 cycles at the denaturing temperature of 94° C. for 1 min, annealing temperature of 60° C. for 45 sec, and an extension temperature of 72° C. for 1 min. […] These included more irregular and variable cell shapes, with a cytoplasm less homogenous and “rougher” in appearance than control culture.
(§2) Treatment with GLP-1 induces the differentiation of ductal epithelial cells into insulin-producing cells. FIG. 2 illustrates a series of cell cultures grown with or without GLP-1 (10 nM) for 72 h. […] Preabsorption of the antibody with an excess of human recombinant insulin prevented the staining of insulin-positive GLP-1 treated cells (data not shown). While treatment with GLP-1 turned the majority of ARIP cells into […] For β-actin, the annealing temperature was raised to 64° C. for 1 min and gene-specific primers were used. For GLP-1-receptor (GLP-R) the annealing temperature used was 55° C. All other experimental conditions to amplify GLUT2, glucokinase, and GLP-R mRNAs were identical to those described for the amplification of insulin mRNA. RT and PCR conditions for human transcripts were identical to those described for rat mRNAs.
(§3) Southern blotting with species-specific full length cDNA probes for insulin, GLUT-2, glucokinase, GLP-1 receptor and β-actin was performed as previously described. Y. Wang, R. Perfetti, N. H. Greig, H. W. Holloway, K. A. DeOre, C. Montrose-Rafizadeh, D. Elahi, J. M. Egan, “Glucagon-like peptide-1 can reverse the age-related decline in glucose tolerance in rats.” J Clin Invest 99:2883-2889, 1997.

PANC-1/IDX-1 cells = assay: RT-PCR of islet β-cell specific transcripts, PANC-1/IDX-1 cells; format: cell-based, human; settings: Exendin-9 100 nM for 72 h
Protocol: PANC-1 cells were transfected with a pcDNA3 construct (Invitrogen; Carlsbad, Calif.) harboring the wild-type full-length IDX-1 cDNA using LipoTAXI (Catalog N. 204110; Mammalian Transfection Kit, Stratagene; La Jolla, Calif.). Control cells were transfected with the vector alone. The selection of positive (i.e. transfected) cells was carried out by culturing the cells in the presence of 400 μg/ml of G418 sulfate (GN-04, Omega; Tarzana, Calif.).
as §1, §2, §3

Substance | effect on islet mass (diabetic rats) | effect on expression of β-cell-specific genes (ARIP cells) | effect on expression of β-cell-specific genes (PANC-1/IDX-1 cells)
exendin4: an analog of the incretin hormone glucagon-like-peptide-1 | increase islet mass |  | 
Exendin-9: the peptide receptor antagonist of GLP-1 |  | inhibited the expression of GLUT-2, insulin and glucokinase | inhibited the expression of GLUT-2, insulin and glucokinase
